Data published in ChEMBL document CHEMBL1201862, “PubChem BioAssay data set” (2004).
Calls of active or inactive are those of the source.

Assays:
[1] = target: 1-phosphatidylinositol 4,5-bisphosphate phosphodiesterase beta-3 (Homo sapiens, UniProt Q01970); experiment: Fluorescence-based biochemical high throughput dose response assay to identify inhibitors of phospholipase C isozymes (PLC-B3).
[2] = target: 1-phosphatidylinositol 4,5-bisphosphate phosphodiesterase gamma-1 (Homo sapiens, UniProt P19174); experiment: Counterscreen for inhibitors of phospholipase C isozymes (PLC-B3): Fluorescence-based biochemical high throughput dose response assay to identify inhibitors of phospholipase C isozymes (PLC-gamma1).
Vero [3] = experiment: cells; type: functional; conditions: Chlorocebus sabaeus
Vero [4] = experiment: mammalian cell viability reduction – secondary assay, cytotoxicity control for West Nile virus antiviral project, dose response (AID 1650); type: functional; conditions: Chlorocebus sabaeus
[5] = reduced cellular PGC1a acetyl-lysine signal – cell-based, cherry-picked samples, dose response (AID 720514); type: functional;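 note: potency may reflect raised or lowered acetylation signal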
Vero [6] = experiment: cells; type: functional, cell-based; conditions: Chlorocebus sabaeus
[7] = Trypanosoma cruzi growth suppression in host cells – NIH3T3 host cells, beta-gal luminescence, confirmation (AID 2044); type: functional, cell-based;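 note: intracellular parasites grown in NIH/3T3 mouse fibroblasts as host cells; luminescent beta-galactosidase reporter signal from transgenic T. cruzi replicating inside host cells; inhibitors lower the luminescence signal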
[8] = NIH3T3 cell viability loss – ATP luminescence, mouse fibroblasts, counter-screen, dose response (AID 2010); type: functional, cell-based;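 note: cells exposed to compound for about 90 hours before reading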
Transthyretin = Transthyretin (Homo sapiens, UniProt P02766); experiment: Luminescence-based cell-based high throughput dose response assay to identify activators of Transthyretin (TTR) transcription.; type: functional
fMet-Leu-Phe receptor = fMet-Leu-Phe receptor (Homo sapiens, UniProt P21462); experiment: formyl peptide receptor binders – dose response (AID 519); type: functional
[9] = target: Disintegrin and metalloproteinase domain-containing protein 17 (Homo sapiens, UniProt P78536); experiment: inhibition of ADAM17 substrate cleavage – biochemical, quenched FRET substrate, counter-screen for ADAM10 exosite inhibitor project, dose response (AID 743253)
[10] = potency of ADAM10 substrate cleavage blockers – biochemical, QFRET, dose response (AID 743254);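 note: ADAM10 enzyme with the DM2 quenched FRET peptide as substrate; EDANS fluorescence gain as the protease cuts the substrate; inhibitor potency against ADAM10 proteolytic activity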
HEK293 = experiment: viability loss in HEK293T cells – cell-based, ATP luminescence, cherry-pick samples, cytotoxicity control, dose response (AID 687005); type: functional; conditions: Homo sapiens;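 note: cells exposed to compound for 48 hours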
[11] = HEK293 Cytotoxicity Assay Measured in Cell-Based System Using Plate Reader - 7071-01_Inhibitor_Dose_CherryPick_Activity_Set2.; type: functional
[12] = microbe, parasite or virus in culture; type: functional; conditions: Mycobacterium tuberculosis
Nonstructural protein 1 = Nonstructural protein 1 (Influenza A virus, UniProt Q194T2); type: functional, Influenza A virus (A/California/07/2009(H1N1))
[13] = HGIII-sPLA2 enzyme inhibition potency – biochemical, QFRET, IC50, dose response (AID 743457);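 note: green fluorescence rise as the enzyme cleaves BODIPY PC-A2 in liposomes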
[14] = target: T1, Oxysterols receptor LXR-beta (Homo sapiens, UniProt P55055); type: functional, cell-based;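 note: agonist activity at LXR measured by a cell-based luminescence readout across a dose range, run as a counterscreen for daf-12 agonists; HEK293 cells with Gal4-LXR fusion and GAL4-driven luciferase reporter; potency for activation of Gal4-LXR reporter so compounds are agonists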
T1 sequence (P55055 whole entry): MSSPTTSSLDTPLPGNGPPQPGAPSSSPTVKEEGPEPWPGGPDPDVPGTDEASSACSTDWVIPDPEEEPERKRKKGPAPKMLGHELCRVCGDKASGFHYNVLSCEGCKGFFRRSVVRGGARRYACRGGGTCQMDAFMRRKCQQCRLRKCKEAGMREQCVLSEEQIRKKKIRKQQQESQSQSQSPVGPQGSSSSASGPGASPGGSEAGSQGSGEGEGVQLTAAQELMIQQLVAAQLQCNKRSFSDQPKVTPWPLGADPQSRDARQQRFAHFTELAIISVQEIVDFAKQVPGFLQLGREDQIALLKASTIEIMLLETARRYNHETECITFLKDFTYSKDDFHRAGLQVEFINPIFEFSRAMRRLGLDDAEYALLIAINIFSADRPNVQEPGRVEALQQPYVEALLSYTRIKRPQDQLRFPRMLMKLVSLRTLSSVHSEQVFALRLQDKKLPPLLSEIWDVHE

[15] = target: T2, Aryl hydrocarbon receptor (Homo sapiens, UniProt P35869); experiment: Luminescence-based cell-based high throughput dose response assay for activators of the Aryl Hydrocarbon Receptor (AHR). [Related pubchem assays: 2796 (Primary screen (AHR activators in singlicate)), 2845 (Confirmation screen (AHR activators in triplicate)), 434939 (Counterscreen (PXR activators in triplicate)), 2804 (Summary (AHR activators))]; type: ADME
T2 sequence (P35869 whole entry): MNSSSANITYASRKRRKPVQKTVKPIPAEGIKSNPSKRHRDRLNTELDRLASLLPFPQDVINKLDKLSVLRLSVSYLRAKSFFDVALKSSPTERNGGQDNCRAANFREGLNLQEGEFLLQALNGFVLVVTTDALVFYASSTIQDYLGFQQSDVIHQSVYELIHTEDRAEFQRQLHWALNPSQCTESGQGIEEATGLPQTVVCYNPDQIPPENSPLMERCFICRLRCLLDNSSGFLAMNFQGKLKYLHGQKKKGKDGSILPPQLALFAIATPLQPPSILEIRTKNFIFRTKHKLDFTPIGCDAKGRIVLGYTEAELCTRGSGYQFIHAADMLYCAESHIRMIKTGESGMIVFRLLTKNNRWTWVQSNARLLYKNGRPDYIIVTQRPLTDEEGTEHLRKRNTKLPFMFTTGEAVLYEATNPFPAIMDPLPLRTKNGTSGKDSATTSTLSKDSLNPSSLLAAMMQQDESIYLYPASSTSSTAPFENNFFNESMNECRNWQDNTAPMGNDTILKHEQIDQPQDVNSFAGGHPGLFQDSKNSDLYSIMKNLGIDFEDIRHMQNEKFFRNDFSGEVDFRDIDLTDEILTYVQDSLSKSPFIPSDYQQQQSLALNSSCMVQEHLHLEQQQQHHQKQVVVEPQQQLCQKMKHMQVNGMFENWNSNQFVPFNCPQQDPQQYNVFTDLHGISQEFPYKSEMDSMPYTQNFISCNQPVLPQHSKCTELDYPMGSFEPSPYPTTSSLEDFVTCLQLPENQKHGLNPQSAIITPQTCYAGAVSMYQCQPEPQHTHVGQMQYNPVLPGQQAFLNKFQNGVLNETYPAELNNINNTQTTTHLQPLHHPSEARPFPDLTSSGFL

[16] = alpha-synuclein stem-loop luciferase translation blockers – H4 neuroglioma cells, luminescence, confirmation (AID 1988); type: functional, cell-based
[17] = decrease of insulin promoter-GFP reporter – imaging, high-content screening, mouse beta cells (AID 1628); type: functional; conditions: MIN6
[18] = DRD fibroblast viability loss – cell-based, non-viral oncogenic, luminescence, dose response (AID 1934); type: functional; conditions: Homo sapiens
[19] = luciferase reporter signal suppression in cells – H4 neuroglioma cells, luminescence, dose response (AID 1990); type: functional, cell-based
BJ [20] = experiment: BJ-TERT-LT-ST fibroblast viability loss – cell-based, RAS-independent, luminescence, dose response (AID 1935); type: functional; conditions: Homo sapiens;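 note: BJ fibroblasts immortalized with TERT plus LT and ST oncogenes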
[21] = target: T3, Heat shock factor protein 1 (Mus musculus, UniProt P38532); experiment: enhancement of HSF1-driven luciferase signal – cell-based, NIH3T3, luminescence, dose retest, confirmation (AID 435004); type: functional;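 note: stress induced by proteasome inhibitor MG132 added 30 min after compound; luciferase reporter driven by HSF1 response element in NIH3T3 cells; actives raise luminescence as potentiators of the MG132 stress response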
T3 sequence (P38532 whole entry): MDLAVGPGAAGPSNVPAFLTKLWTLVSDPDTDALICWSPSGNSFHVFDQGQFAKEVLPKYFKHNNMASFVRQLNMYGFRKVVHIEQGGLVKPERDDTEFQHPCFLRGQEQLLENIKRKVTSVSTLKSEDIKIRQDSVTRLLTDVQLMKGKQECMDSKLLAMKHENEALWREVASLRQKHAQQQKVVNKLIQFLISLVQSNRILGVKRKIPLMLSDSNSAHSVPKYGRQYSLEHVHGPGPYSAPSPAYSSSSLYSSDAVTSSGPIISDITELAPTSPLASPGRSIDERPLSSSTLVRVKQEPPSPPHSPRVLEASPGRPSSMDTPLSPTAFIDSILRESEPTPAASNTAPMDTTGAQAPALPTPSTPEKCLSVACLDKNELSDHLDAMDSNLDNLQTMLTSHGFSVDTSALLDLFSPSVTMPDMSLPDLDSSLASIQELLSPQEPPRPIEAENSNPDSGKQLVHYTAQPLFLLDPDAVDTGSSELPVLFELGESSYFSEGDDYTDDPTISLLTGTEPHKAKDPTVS

BJ [22] = experiment: BJ-TERT fibroblast viability loss – cell-based, RAS-independent, luminescence, dose response (AID 1933); type: functional; conditions: Homo sapiens
[23] = Luminescence Cell-Based Dose Response HTS to Identify Inhibitors of 5'UTR Stem-Loop Driven Prion Protein mRNA Translation in H4 Neuroglioblastoma Cells. [Related pubchem assays: 1827 (Project Summary), 1813 (Primary HTS)]; type: functional
BJ [24] = experiment: cells; type: functional, cell-based; conditions: Homo sapiens
[25] = MIN6 cell viability loss – mouse insulinoma, cytotoxicity control, dose response (AID 2122); type: functional;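 note: confirmatory high-throughput counterscreen run to flag cytotoxic compounds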
[26] = viability loss in HepG2 hepatoma cells – cell-based, cherry-picks, set 5, cytotoxicity control, dose response (AID 1053118); type: functional
[27] = viability loss in HEK293 kidney cells – cell-based, cherry-picks, set 5, cytotoxicity control, dose response (AID 1053117); type: functional

Sequence of Disintegrin and metalloproteinase domain-containing protein 17 (P78536 whole entry, the tested form may be a part): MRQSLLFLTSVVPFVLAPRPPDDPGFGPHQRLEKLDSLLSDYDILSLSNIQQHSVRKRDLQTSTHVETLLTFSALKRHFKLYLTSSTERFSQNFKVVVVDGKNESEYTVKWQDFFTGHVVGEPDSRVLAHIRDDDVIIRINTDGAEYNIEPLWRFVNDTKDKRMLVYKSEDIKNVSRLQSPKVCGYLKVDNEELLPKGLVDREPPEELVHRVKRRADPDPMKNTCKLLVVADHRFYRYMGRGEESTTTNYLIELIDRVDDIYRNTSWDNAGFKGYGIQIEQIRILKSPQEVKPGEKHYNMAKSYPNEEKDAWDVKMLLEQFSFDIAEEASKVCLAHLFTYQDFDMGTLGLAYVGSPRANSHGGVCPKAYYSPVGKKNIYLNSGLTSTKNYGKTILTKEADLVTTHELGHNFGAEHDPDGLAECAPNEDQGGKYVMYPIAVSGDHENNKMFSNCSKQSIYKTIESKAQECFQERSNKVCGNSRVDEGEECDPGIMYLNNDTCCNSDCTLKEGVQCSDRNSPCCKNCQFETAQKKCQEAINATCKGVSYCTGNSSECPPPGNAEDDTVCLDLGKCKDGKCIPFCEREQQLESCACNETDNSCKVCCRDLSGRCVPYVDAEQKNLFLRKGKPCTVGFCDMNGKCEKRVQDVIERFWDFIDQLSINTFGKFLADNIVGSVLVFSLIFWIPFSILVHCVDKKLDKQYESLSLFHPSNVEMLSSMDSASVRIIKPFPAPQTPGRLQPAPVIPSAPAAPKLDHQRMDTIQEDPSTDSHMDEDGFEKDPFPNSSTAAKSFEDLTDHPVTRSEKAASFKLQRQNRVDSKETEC
Sequence of 1-phosphatidylinositol 4,5-bisphosphate phosphodiesterase beta-3 (Q01970 whole entry): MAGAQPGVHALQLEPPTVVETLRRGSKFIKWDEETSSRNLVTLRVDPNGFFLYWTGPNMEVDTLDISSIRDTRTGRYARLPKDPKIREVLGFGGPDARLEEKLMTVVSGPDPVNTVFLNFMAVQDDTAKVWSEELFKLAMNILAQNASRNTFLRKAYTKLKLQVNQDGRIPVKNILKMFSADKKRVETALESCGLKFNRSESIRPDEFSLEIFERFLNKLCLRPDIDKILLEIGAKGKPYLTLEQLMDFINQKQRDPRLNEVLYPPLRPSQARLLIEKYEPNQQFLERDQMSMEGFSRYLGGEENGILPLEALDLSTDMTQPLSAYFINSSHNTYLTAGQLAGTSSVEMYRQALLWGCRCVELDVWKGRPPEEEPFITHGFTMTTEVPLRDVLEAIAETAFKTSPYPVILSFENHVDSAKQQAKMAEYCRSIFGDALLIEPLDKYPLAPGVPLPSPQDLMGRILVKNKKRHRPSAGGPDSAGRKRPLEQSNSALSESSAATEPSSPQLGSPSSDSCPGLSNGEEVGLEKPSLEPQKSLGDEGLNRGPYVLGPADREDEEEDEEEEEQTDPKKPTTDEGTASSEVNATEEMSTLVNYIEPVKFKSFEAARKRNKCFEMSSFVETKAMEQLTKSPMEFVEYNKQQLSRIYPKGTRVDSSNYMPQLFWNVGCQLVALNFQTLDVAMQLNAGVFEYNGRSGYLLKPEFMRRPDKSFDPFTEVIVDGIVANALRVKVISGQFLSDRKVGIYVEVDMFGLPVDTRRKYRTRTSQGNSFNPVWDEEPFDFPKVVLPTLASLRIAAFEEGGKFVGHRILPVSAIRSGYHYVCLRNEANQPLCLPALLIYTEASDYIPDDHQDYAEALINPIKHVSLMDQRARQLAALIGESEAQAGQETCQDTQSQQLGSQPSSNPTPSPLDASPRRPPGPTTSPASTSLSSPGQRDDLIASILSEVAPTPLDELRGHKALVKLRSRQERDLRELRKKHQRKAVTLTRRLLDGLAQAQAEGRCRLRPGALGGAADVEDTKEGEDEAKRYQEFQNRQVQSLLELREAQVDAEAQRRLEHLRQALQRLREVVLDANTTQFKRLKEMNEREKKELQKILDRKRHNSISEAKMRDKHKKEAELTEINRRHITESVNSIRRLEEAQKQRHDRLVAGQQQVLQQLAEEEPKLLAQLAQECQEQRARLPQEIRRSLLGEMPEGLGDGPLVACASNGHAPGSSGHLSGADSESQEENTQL
Sequence of 1-phosphatidylinositol 4,5-bisphosphate phosphodiesterase gamma-1 (P19174 whole entry): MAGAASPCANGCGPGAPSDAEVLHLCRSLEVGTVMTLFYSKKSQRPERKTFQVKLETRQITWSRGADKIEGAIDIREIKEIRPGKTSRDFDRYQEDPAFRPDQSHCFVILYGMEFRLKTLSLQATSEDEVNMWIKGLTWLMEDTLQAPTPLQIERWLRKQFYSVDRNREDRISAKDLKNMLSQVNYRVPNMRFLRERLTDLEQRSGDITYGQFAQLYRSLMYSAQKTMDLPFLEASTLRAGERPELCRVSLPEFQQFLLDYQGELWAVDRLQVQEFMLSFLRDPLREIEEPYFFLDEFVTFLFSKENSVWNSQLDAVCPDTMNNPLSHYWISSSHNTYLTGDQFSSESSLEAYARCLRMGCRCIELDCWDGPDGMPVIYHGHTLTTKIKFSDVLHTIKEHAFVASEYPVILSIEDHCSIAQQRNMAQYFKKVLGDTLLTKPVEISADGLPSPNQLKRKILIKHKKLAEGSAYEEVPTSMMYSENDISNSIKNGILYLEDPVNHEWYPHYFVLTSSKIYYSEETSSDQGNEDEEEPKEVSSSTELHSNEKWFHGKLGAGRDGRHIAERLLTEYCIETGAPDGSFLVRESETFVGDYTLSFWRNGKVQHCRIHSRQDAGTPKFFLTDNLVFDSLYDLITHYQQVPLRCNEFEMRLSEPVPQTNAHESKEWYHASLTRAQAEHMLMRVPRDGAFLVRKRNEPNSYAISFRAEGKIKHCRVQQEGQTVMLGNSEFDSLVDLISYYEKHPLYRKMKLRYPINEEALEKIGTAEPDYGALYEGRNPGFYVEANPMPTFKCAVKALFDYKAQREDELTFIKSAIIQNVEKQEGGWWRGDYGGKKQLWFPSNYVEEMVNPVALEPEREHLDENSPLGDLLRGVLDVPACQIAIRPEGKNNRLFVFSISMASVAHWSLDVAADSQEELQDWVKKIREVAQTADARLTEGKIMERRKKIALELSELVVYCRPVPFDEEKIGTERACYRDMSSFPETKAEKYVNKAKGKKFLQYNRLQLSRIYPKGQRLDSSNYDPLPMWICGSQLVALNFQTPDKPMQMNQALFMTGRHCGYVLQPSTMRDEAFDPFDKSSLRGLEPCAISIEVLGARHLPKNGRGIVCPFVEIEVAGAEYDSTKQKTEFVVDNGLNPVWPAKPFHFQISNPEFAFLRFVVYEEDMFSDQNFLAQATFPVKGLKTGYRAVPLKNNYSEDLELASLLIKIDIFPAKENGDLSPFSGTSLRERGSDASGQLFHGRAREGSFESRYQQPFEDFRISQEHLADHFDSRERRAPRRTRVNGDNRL
Sequence of fMet-Leu-Phe receptor (P21462 whole entry, the tested form may be a part): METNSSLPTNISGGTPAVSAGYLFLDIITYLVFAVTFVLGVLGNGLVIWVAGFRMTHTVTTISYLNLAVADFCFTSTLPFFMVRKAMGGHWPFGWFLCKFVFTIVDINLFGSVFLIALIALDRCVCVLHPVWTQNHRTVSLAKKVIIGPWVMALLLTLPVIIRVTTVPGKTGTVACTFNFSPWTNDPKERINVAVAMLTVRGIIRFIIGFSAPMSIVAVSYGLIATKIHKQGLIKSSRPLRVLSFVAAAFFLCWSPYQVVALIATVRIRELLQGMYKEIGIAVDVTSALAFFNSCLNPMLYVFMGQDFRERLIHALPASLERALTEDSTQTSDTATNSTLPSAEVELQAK
Sequence of Nonstructural protein 1 (Q194T2 whole entry): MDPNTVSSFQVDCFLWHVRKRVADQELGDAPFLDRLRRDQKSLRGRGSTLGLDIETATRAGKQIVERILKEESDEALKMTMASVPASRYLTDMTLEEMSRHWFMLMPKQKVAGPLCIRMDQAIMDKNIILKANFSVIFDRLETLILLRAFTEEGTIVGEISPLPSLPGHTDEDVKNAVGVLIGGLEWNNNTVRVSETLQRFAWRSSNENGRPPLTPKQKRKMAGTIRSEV

Which IC50 [1] does the source give for `O=c1[nH]c2ccccc2c(=O)n1-c1ccc(Cl)cc1Cl` here?
Its IC50 is > 122 µM (inactive).

What about the IC50 [2] of the same molecule?
The IC50 was > 122 µM (inactive).

For `Cc1nc2ccccn2c1C(=O)/C=C/c1ccc(F)cc1`, which CC50 (Vero [3]) is on record?
Its CC50 is 18.7 µM (active).

And the CC50 (Vero [4])?
Its CC50 is 25.6 µM (active).

And the AC50 [5]?
The AC50 was 0.76 µM (active).

What about the IC50 (Vero [6]) of the same molecule?
Its IC50 is > 25 µM (active).

Which EC50 [7] does the source give for `CN(C)CC#CCC(O)(c1ccccc1)C1CCCC1` (stereo unspecified) here?
The EC50 was < 0.1 µM (active).

And the EC50 [8]?
Its EC50 is > 60 µM (not active).

What about the EC50 (cells) of the same molecule?
Its EC50 is 0.016 µM (active).

With `CC(=O)c1cc(C(C)=O)c(C)nc1C` as the molecule, how does the EC50 (Transthyretin) read?
The EC50 was > 167 µM (inactive).

Which Ki (fMet-Leu-Phe receptor) does the source give for `CCOC(=O)Cc1cc(O)n2nc(C)c(-c3ccc(Cl)cc3)c2n1` here?
Its Ki is 19 µM (inactive).

What does the source list for `O=C(COC(=O)c1ccc(Cl)c(S(=O)(=O)N2CCCCCC2)c1)Nc1ccccc1`?
IC50 [9]: > 69.5 µM (inactive); IC50 [10]: > 69.5 µM (inactive)

Which results are given for `S=C(Nc1cccc(Cl)c1)Nc1ccccc1Oc1ccccc1`?
AC50 (HEK293): 23.5 µM (active); AC50 [11]: 23.5 µM (active)

Which results are given for `COC(=O)C(Cc1ccc(O)cc1)NC(=O)C(C)NC(=O)c1ccc(C(C)(C)C)cc1` (stereo unspecified)?
IC50 [1]: > 123 µM (inactive); IC50 [2]: > 123 µM (inactive)

Which CC50 [12] does the source give for `Cc1cc(C)c(C)c(N=Nc2nc3ccccc3n2C)c1C` here?
The CC50 was > 40 µM (active).

What about the IC50 (Nonstructural protein 1) of the same molecule?
Its IC50 is 17.6 µM (active).

And the IC50 [13]?
The IC50 was > 122 µM (inactive).

Which EC50 [14] does the source give for `Cc1c(C(=O)OC2CCC(C)CC2)[nH]c2c1C(=O)CCC2` (stereo unspecified) here?
Its EC50 is > 67.5 µM (inactive).

With `Cc1ccc2c(c1)c1nc3ccccc3nc1n2C` as the molecule, how does the EC50 [15] read?
Its EC50 is 1 µM (active).

For `CCOc1ccc(NC2=NC(=O)S/C2=C\c2ccc(O)cc2)cc1`, which EC50 (Transthyretin) is on record?
The EC50 was > 167 µM (inactive).

Which results are given for `Cn1c(Cl)cnc1C1CC(=O)c2cc(Cl)ccc2O1` (stereo unspecified)?
EC50 [16]: > 120 µM (not active); IC50 [17]: 2.95 µM (active); EC50 [18]: 7.73 µM (active); CC50 (Vero [4]): 17.9 µM (active); EC50 [19]: 10.9 µM (active); EC50 (BJ [20]): 7.45 µM (inconclusive); EC50 [21]: 38.8 µM (active); EC50 (BJ [22]): 8.07 µM (active); EC50 [23]: 10.1 µM (active); AC50 [5]: 16.9 µM (active); EC50 (BJ [24]): 8.32 µM (inconclusive); IC50 [25]: 1.98 µM (active)

With `CN(C)CCN(C(=O)c1ccc(S(=O)(=O)N2CCc3ccccc32)cc1)c1nc2ccc(F)cc2s1` as the molecule, how does the EC50 [7] read?
Its EC50 is < 0.1 µM (active).

What about the EC50 [8] of the same molecule?
Its EC50 is > 60 µM (not active).

What about the EC50 (cells) of the same molecule?
Its EC50 is 0.188 µM (active).

Which results are given for `CC(C)C1C(=O)N(Cc2cn(CC3CCCCC3)nn2)CCS(=O)(=O)N1Cc1ccc(-c2ccccc2)cc1` (stereo unspecified)?
IC50 [9]: > 69.5 µM (inactive); IC50 [10]: 10.2 µM (inactive)

What does the source list for `C[C@@H]1CN([C@@H](C)CO)C(=O)c2cc(NS(=O)(=O)c3ccc(F)cc3)ccc2O[C@@H](C)CCCCO[C@@H]1CN(C)Cc1ccc2c(c1)OCO2`?
AC50 (HEK293): 28.3 µM (active); AC50 [11]: 28.3 µM (active)

What does the source list for `CO[C@H]1CN(C)C(=O)c2cc(NC(=O)Nc3cc(Cl)cc(Cl)c3)ccc2OC[C@@H](C)NC[C@H]1C`?
AC50 [26]: 42.6 µM (active); AC50 [27]: > 52 µM (inactive)

With `O=C(N/N=C/c1ccc(-c2ccccc2[N+](=O)[O-])o1)c1cncc(Br)c1` as the molecule, how does the EC50 [15] read?
The EC50 was 6.71 µM (active).

For `O=c1[nH]cnc2cc(-c3ccccc3)sc12`, which EC50 [14] is on record?
The EC50 was > 67.5 µM (inactive).
